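Briefly, cells in 96-well plates were exposed to five compound concentrations for 48 h, and endpoints were estimated by linear interpolation. GI50 = concentration required for 50% inhibition of growth.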 Calls of active or inactive are those of the source. Cut-off read from the data, not from the text of the source: active = GI50 up to about 1.1 µM and inactive = higher.
Experiments:
Test in all cases: NCI anticancer screen, dose series, 48 h
[1] = system: LXFL 529
[2] = system: HOP-62
[3] = system: HCT-15
[4] = system: U-251
[5] = system: MDA-MB-231
[6] = system: RXF 393
[7] = system: K562
[8] = system: SF-268
[9] = system: SNB-75
[10] = system: M14
[11] = system: NCI-H460
[12] = system: MDA-MB-435
[13] = system: OVCAR-3
[14] = system: HOP-92
[15] = system: T47D
[16] = system: HT-29
[17] = system: KM12
[18] = system: SK-MEL-5
[19] = system: SK-MEL-28
[20] = system: NCI-H23

SMILES | GI50 [1] | GI50 [2] | GI50 [3] | GI50 [4] | GI50 [5] | GI50 [6] | GI50 [7] | GI50 [8] | GI50 [9] | GI50 [10] | GI50 [11] | GI50 [12] | GI50 [13] | GI50 [14] | GI50 [15] | GI50 [16] | GI50 [17] | GI50 [18] | GI50 [19] | GI50 [20]
COCC(=O)OC1CCn2c1nc1c2C(=O)C(C)=C(NC(C)=O)C1=O (centres undefined) | 3.35 µM (inactive) | 21.5 µM (inactive) | 14.4 µM | 6.05 µM (inactive) | 1.24 µM (inactive) | 3.41 µM (inactive) | 2.79 µM (inactive) | 6.73 µM (inactive) | 5.42 µM (inactive) | 11.1 µM (inactive) | 17.5 µM (inactive) | 1.89 µM (inactive) | 1.66 µM (inactive) | 1.98 µM (inactive) | 0.787 µM (active) | 9.93 µM (inactive) | 15.7 µM (inactive) | 13.5 µM (inactive) | 15.1 µM (inactive) | 7.85 µM (inactive)
CCOC(=O)C(C(=O)OCC)=C1C=C(c2ccccc2)c2ccccc21 | 53.2 µM (inactive) | 13.3 µM (inactive) | 25.8 µM | 86.7 µM (inactive) |  | 40.2 µM (inactive) | 36.6 µM (inactive) | > 100 µM (inactive) | 45.7 µM (inactive) | 35.9 µM (inactive) | 31.8 µM (inactive) |  | > 100 µM (inactive) | 8.09 µM (inactive) |  | 42.8 µM (inactive) | 37.4 µM (inactive) | 31.1 µM (inactive) | > 100 µM (inactive) | 54.5 µM (inactive)
Brc1cccc(/C=N/C23CC4CC(CC(C4)C2)C3)c1 | > 100 µM (inactive) | > 100 µM (inactive) | > 100 µM | > 100 µM (inactive) |  | > 100 µM (inactive) | > 100 µM (inactive) | > 100 µM (inactive) | > 100 µM (inactive) | > 100 µM (inactive) | > 100 µM (inactive) |  | > 100 µM (inactive) | > 100 µM (inactive) |  | > 100 µM (inactive) | > 100 µM (inactive) | > 100 µM (inactive) | > 100 µM (inactive) | > 100 µM (inactive)
